Laboratory results reported in US9371320B2, “Heterocyclic compound” (TAKEDA PHARMACEUTICAL COMPANY LIMITED, priority 2012, dated 2016).
Where two headings read alike, the source gives them in different places.

What was measured:
JAK1 = target: T1, JAK1 (Homo sapiens, UniProt P23458); assay: JAK1 enzyme inhibition test (LANCE method); type: biochemical; conditions: for inhibition at 1 µM: test compound 1 μM, read-out: Inhibitory rate (%) JAK1 1 μM; for inhibition at 10 µM: read-out: Inhibitory rate (%) JAK1 10 μM
T1 construct: purchased Invitrogen
T1 sequence (P23458 whole entry): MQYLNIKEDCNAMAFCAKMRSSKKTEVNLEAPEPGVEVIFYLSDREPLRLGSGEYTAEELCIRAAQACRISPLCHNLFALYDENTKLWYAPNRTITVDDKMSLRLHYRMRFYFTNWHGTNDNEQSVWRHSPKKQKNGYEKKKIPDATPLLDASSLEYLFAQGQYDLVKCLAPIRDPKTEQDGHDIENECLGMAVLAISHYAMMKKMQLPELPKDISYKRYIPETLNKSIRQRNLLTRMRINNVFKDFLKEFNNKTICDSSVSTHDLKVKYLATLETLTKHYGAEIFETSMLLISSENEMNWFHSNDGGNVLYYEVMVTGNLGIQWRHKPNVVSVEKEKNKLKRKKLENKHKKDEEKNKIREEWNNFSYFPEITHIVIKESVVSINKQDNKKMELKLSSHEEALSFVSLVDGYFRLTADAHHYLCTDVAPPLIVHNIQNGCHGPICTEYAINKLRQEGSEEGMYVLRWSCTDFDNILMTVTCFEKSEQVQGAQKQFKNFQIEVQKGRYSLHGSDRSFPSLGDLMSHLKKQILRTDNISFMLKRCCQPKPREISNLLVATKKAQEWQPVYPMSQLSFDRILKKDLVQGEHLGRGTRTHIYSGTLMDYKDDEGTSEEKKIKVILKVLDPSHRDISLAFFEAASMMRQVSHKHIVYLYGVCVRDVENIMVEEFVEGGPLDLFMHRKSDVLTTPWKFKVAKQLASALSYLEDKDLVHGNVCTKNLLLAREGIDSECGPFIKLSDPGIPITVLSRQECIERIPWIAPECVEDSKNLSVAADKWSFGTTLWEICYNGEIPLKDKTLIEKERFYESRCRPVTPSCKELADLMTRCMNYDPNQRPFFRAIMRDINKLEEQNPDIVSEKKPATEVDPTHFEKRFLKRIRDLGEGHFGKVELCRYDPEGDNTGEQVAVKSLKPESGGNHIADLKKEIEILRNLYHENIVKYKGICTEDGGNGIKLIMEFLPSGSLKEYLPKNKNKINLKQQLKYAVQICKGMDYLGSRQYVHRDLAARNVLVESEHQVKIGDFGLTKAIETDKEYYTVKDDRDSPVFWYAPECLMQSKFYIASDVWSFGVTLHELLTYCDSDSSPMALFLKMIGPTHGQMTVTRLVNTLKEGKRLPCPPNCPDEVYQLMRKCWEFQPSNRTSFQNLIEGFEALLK
Procedure, shortened: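 TR-FRET (LANCE) kinase assay using JAK1 at 187.5 ng/mL, ULight-JAK1 peptide at 300 nM and ATP at 150 μM, given as solution concentrations before mixing. Buffer was 50 mM HEPES pH 7.5 with 10 mM MgCl2 and 2 mM DTT, and the reaction ran 1 h at room temperature. Eu anti-phosphotyrosine signal at 665 nm was expressed relative to a no-enzyme well, taken as 100% inhibition.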

Tyk2 = target: T2, Tyk2 (Homo sapiens, UniProt P29597); assay: Tyk2 enzyme inhibition test (LANCE method); type: biochemical; conditions: for inhibition at 1 µM: test compound 1 μM, read-out: Inhibitory rate (%) Tyk2 1 μM; for inhibition at 10 µM: test compound 10 μM, read-out: Inhibitory rate (%) Tyk2 10 μM
T2 construct: purchased Invitrogen
T2 sequence (P29597 whole entry): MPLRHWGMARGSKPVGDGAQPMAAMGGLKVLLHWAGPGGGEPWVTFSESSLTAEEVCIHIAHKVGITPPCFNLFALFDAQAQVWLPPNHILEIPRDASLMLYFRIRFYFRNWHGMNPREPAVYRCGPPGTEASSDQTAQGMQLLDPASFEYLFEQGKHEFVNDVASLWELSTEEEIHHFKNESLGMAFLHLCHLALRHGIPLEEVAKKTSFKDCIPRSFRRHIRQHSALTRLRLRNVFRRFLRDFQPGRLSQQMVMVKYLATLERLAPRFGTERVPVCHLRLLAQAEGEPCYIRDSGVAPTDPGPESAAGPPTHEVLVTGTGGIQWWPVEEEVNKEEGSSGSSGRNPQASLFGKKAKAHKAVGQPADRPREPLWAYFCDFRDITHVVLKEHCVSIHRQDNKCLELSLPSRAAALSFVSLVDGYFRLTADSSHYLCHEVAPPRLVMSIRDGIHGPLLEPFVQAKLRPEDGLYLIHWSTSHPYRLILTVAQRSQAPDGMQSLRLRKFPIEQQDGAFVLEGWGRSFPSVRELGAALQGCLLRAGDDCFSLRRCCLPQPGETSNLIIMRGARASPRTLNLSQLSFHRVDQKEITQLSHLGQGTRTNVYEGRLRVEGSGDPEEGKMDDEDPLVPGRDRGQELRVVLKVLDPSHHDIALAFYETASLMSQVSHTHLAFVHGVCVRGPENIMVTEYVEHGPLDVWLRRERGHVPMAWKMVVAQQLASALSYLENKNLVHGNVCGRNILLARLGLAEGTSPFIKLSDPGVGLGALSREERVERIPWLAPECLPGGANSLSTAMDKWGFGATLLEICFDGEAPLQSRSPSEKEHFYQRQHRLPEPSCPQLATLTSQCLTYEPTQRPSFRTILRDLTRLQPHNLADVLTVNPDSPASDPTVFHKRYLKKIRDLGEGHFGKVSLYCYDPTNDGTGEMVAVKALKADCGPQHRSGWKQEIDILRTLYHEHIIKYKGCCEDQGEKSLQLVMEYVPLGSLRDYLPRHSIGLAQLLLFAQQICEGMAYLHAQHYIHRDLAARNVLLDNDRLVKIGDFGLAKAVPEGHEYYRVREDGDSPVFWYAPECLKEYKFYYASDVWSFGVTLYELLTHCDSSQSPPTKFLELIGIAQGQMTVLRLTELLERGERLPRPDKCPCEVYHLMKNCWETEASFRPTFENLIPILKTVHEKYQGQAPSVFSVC
Procedure, shortened: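 Recombinant Tyk2 (375 ng/mL stock) with ULight-JAK1 peptide (300 nM stock) and ATP (30 μM stock) in HEPES pH 7.5/MgCl2/EGTA/DTT buffer, 1 h at room temperature. Stopped with EDTA plus Eu-anti-phosphotyrosine antibody; TR-FRET read at 665 nm after 1 h. No-enzyme wells define 100% inhibition.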

[1] = test compound 10 μM (Ex. 182-220), beside Tyk2 1 μM

| SMILES | inhibition at 1 µM (JAK1) [%] | inhibition at 1 µM (Tyk2) [%] | inhibition at 10 µM (JAK1; test compound 10 μM) [%] | inhibition at 10 µM (Tyk2) [%] | inhibition at 10 µM (JAK1; [1]) [%] |
| --- | --- | --- | --- | --- | --- |
| N#Cc1c[nH]c(=O)c2c(-c3cn[nH]c3)nn(-c3c(F)cccc3F)c12 [Example 228, 1-(2,6-difluorophenyl)-4-oxo-3-(1H-pyrazol-4-yl)-4,5-dihydro-1H-pyrazolo[4,3-c]pyridine-7-carbonitrile] | 85 | 99 | – | – | – |
| N#CCc1ccc(-c2cn(C3CCOCC3)c3cc[nH]c(=O)c23)cc1 [Example 25, (4-(4-oxo-1-(tetrahydro-2H-pyran-4-yl)-4,5-dihydro-1H-pyrrolo[3,2-c]pyridin-3-yl)phenyl)acetonitrile] | 77 | 71 | – | – | – |
| CNC(=O)c1ccc(-c2nn(-c3c(F)cccc3F)c3cc[nH]c(=O)c23)c(Cl)c1 [Example 295, 3-chloro-4-(1-(2,6-difluorophenyl)-4-oxo-4,5-dihydro-1H-pyrazolo[4,3-c]pyridin-3-yl)-N-methylbenzamide] | – | – | 24 | 80 | – |
| NC(=O)c1cc(-c2nn(-c3ccccn3)c3cc[nH]c(=O)c23)cs1 [Example 247, 4-(4-oxo-1-(pyridin-2-yl)-4,5-dihydro-1H-pyrazolo[4,3-c]pyridin-3-yl)thiophene-2-carboxamide] | 86 | 88 | – | – | – |
| N#CCc1ccc(-c2nn(-c3c(F)cccc3F)c3c(Cl)c[nH]c(=O)c23)cc1 [Example 116, (4-(7-chloro-1-(2,6-difluorophenyl)-4-oxo-4,5-dihydro-1H-pyrazolo[4,3-c]pyridin-3-yl)phenyl)acetonitrile] | 89 | 99 | – | – | – |
| O=c1[nH]ccc2c1c(-c1ccccc1F)nn2C1CCCC1 [Example 56, 1-cyclopentyl-3-(2-fluorophenyl)-1,5-dihydro-4H-pyrazolo[4,3-c]pyridin-4-one] | 13 | 31 | – | – | – |
| CNC(=O)c1ccc(-c2nn(-c3c(F)cccc3C#N)c3cc[nH]c(=O)c23)cc1 [Example 307, 4-(1-(2-cyano-6-fluorophenyl)-4-oxo-4,5-dihydro-1H-pyrazolo[4,3-c]pyridin-3-yl)-N-methylbenzamide] | 92 | 99 | – | – | – |
| Cn1cc(NC(=O)c2cc(-c3nn(-c4c(F)cccc4F)c4c(Cl)c[nH]c(=O)c34)cs2)cn1 [Example 166, 4-(7-chloro-1-(2,6-difluorophenyl)-4-oxo-4,5-dihydro-1H-pyrazolo[4,3-c]pyridin-3-yl)-N-(1-methyl-1H-pyrazol-4-yl)thiophene-2-carboxamide] | 98 | 100 | – | – | – |
| Cn1cc(-c2nn(-c3c(F)cccc3F)c3cc[nH]c(=O)c23)ccc1=O [Example 238, 1-(2,6-difluorophenyl)-3-(1-methyl-6-oxo-1,6-dihydropyridin-3-yl)-1,5-dihydro-4H-pyrazolo[4,3-c]pyridin-4-one] | 72 | 91 | – | – | – |
| CCC(CC)n1cc(-c2csc(C(=O)OC)c2)c2c(=O)[nH]ccc21 [Example 7, methyl 4-(4-oxo-1-(pentan-3-yl)-4,5-dihydro-1H-pyrrolo[3,2-c]pyridin-3-yl)thiophene-2-carboxylate] | 95 | 90 | – | – | – |
| CNC(=O)c1ccc(-c2nn(-c3c(F)cccc3F)c3cc[nH]c(=O)c23)c(F)c1 [Example 294, 4-(1-(2,6-difluorophenyl)-4-oxo-4,5-dihydro-1H-pyrazolo[4,3-c]pyridin-3-yl)-3-fluoro-N-methylbenzamide] | 35 | 92 | – | – | – |
| N#Cc1c[nH]c(=O)c2c(-c3ccc(C(N)=O)cc3)cn(C3CCCC3)c12 [Example 81, 4-(7-cyano-1-cyclopentyl-4-oxo-4,5-dihydro-1H-pyrrolo[3,2-c]pyridin-3-yl)benzamide] | 62 | 97 | – | – | – |
| NC(=O)Cc1ccc(-c2nn(-c3c(F)cccc3F)c3c(Cl)c[nH]c(=O)c23)cc1 [Example 124, 2-(4-(7-chloro-1-(2,6-difluorophenyl)-4-oxo-4,5-dihydro-1H-pyrazolo[4,3-c]pyridin-3-yl)phenyl)acetamide] | 89 | 98 | – | – | – |
| N#Cc1c[nH]c(=O)c2c(-c3ccc(N4CCOCC4)cc3)nn(-c3c(F)cccc3F)c12 [Example 229, 1-(2,6-difluorophenyl)-3-(4-(morpholin-4-yl)phenyl)-4-oxo-4,5-dihydro-1H-pyrazolo[4,3-c]pyridine-7-carbonitrile] | 81 | 98 | – | – | – |
| CC(C)(C)n1nc(-c2csc(C(N)=O)c2)c2c(=O)[nH]ccc21 [Example 129, 4-(1-tert-butyl-4-oxo-4,5-dihydro-1H-pyrazolo[4,3-c]pyridin-3-yl)thiophene-2-carboxamide] | 98 | 97 | – | – | – |
| O=c1[nH]cc(Cl)c2c1c(-c1cn[nH]c1)nn2-c1c(F)cccc1F [Example 177, 7-chloro-1-(2,6-difluorophenyl)-3-(1H-pyrazol-4-yl)-1,5-dihydro-4H-pyrazolo[4,3-c]pyridin-4-one] | 91 | 100 | – | – | – |
| N#Cc1c[nH]c(=O)c2c1c(C1CCCC1)cn2-c1csc(C(N)=O)c1 [Example 118, 4-(4-cyano-3-cyclopentyl-7-oxo-6,7-dihydro-1H-pyrrolo[2,3-c]pyridin-1-yl)thiophene-2-carboxamide] | 94 | 99 | – | – | – |
| O=c1[nH]cc(Cl)c2c1c(-c1ccc(CN3CCOCC3)cc1)nn2-c1c(F)cccc1F [Example 185, 7-chloro-1-(2,6-difluorophenyl)-3-(4-(morpholin-4-ylmethyl)phenyl)-1,5-dihydro-4H-pyrazolo[4,3-c]pyridin-4-one] | – | 99 | – | – | 72 |
| O=c1[nH]ccc2c1c(-c1cccc(F)c1)nn2C1CCCC1 [Example 55, 1-cyclopentyl-3-(3-fluorophenyl)-1,5-dihydro-4H-pyrazolo[4,3-c]pyridin-4-one] | 78 | 85 | – | – | – |
| NC(=O)c1ccc(F)c(-c2nn(-c3c(F)cccc3F)c3cc[nH]c(=O)c23)c1 [Example 267, 3-(1-(2,6-difluorophenyl)-4-oxo-4,5-dihydro-1H-pyrazolo[4,3-c]pyridin-3-yl)-4-fluorobenzamide] | – | – | 17 | 31 | – |
| N#Cc1c[nH]c(=O)c2c(-c3csc(CC(N)=O)c3)cn(C3CCCC3)c12 [Example 97, 2-(4-(7-cyano-1-cyclopentyl-4-oxo-4,5-dihydro-1H-pyrrolo[3,2-c]pyridin-3-yl)-2-thienyl)acetamide] | 97 | 99 | – | – | – |
| NS(=O)(=O)c1cccc(-c2nn(C3CCCC3)c3cc[nH]c(=O)c23)c1 [Example 159, 3-(1-cyclopentyl-4-oxo-4,5-dihydro-1H-pyrazolo[4,3-c]pyridin-3-yl)benzenesulfonamide] | 91 | 87 | – | – | – |
| CCNC(=O)n1cc(-c2nn(-c3c(F)cccc3F)c3c(Cl)c[nH]c(=O)c23)cn1 [Example 222, 4-(7-chloro-1-(2,6-difluorophenyl)-4-oxo-4,5-dihydro-1H-pyrazolo[4,3-c]pyridin-3-yl)-N-ethyl-1H-pyrazole-1-carboxamide] | 69 | 98 | – | – | – |
| NS(=O)(=O)c1ccc(-c2cn(C3CCOCC3)c3cc[nH]c(=O)c23)cc1 [Example 16, 4-(4-oxo-1-(tetrahydro-2H-pyran-4-yl)-4,5-dihydro-1H-pyrrolo[3,2-c]pyridin-3-yl)benzenesulfonamide] | 93 | 88 | – | – | – |
| COC(=O)c1c[nH]c(=O)c2c(-c3csc(C#N)c3)cn(C3CCCC3)c12 [Example 73, methyl 3-(5-cyano-3-thienyl)-1-cyclopentyl-4-oxo-4,5-dihydro-1H-pyrrolo[3,2-c]pyridine-7-carboxylate] | 45 | 83 | – | – | – |
| NC(=O)c1cc(-c2nn(-c3c(F)cccc3F)c3cc[nH]c(=O)c23)cs1 [Example 38, 4-(1-(2,6-difluorophenyl)-4-oxo-4,5-dihydro-1H-pyrazolo[4,3-c]pyridin-3-yl)thiophene-2-carboxamide] | 100 | 99 | – | – | – |
| O=c1[nH]ccc2c1c(-c1ccc([N+](=O)[O-])cc1)nn2C1CCCC1 [Example 57, 1-cyclopentyl-3-(4-nitrophenyl)-1,5-dihydro-4H-pyrazolo[4,3-c]pyridin-4-one] | 88 | 81 | – | – | – |
| N#CCc1cccc(-c2nn(-c3c(F)cccc3F)c3c(Br)c[nH]c(=O)c23)c1 [Example 146, (3-(7-bromo-1-(2,6-difluorophenyl)-4-oxo-4,5-dihydro-1H-pyrazolo[4,3-c]pyridin-3-yl)phenyl)acetonitrile] | 69 | 98 | – | – | – |
| N#CCc1cccc(-c2nn(C3CCCC3)c3cc[nH]c(=O)c23)c1 [Example 128, (3-(1-cyclopentyl-4-oxo-4,5-dihydro-1H-pyrazolo[4,3-c]pyridin-3-yl)phenyl)acetonitrile] | 93 | 93 | – | – | – |
| O=C1CCCN1c1ccc(-c2nn(-c3c(F)cccc3F)c3c(Cl)c[nH]c(=O)c23)cc1 [Example 195, 7-chloro-1-(2,6-difluorophenyl)-3-(4-(2-oxopyrrolidin-1-yl)phenyl)-1,5-dihydro-4H-pyrazolo[4,3-c]pyridin-4-one] | – | 100 | – | – | 79 |
